Data reported in patent US9247759B2, “Identification of human T2R receptors that respond to bitter compounds that elicit the bitter taste in compositions, and the use thereof in assays to identify compounds that inhibit (block) bitter taste in compositions and use thereof” (SENOMYX, INC., priority 2007, dated 2016).
pIC50: −log10 of the molar value. Read-outs that look alike come from different tables or passages of the source.

Assays:
hT2R14 [1] = biological target: T1, hT2R14 (Homo sapiens (Human), UniProt Q9NYV8); assay: hT2R panel inhibition, transient HEK293 G16g44, agonist Aristolochic Acid 2 μM; format: cell-based; conditions: HEK293, compound at 25 μM
T1 sequence (Q9NYV8 whole entry): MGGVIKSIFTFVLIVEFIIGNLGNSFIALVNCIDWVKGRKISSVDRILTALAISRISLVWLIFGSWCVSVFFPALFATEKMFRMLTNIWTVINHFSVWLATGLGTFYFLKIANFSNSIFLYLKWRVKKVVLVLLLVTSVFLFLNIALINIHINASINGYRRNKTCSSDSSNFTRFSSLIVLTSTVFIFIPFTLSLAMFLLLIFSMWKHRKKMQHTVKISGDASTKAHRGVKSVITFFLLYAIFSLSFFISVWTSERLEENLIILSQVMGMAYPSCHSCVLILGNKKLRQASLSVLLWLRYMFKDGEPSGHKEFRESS
Description: (§1) Specifically, in order to evaluate the inhibitory selectivity of the Compound C compound, this compound was tested against 22 human T2Rs which were deorphaned by Senomyx. These receptors and the bitter ligands that activate these human T2Rs are reported in earlier patent applications which are incorporated by reference herein. These 22 human T2Rs are hT2R1, 3, 4, 5, 7, 8, 9, 10, 13, 14, 16, 44, 51, 54, 55, 61, 63, 64, 65, 67, 71 and 75. The amino acid and nucleic acid sequences of all of these T2Rs may be found in these earlier patent applications. These human T2Rs were each individually transiently transfected into HEK293 cells that stably express the promiscuous G protein G16g44 and functional assays were effected using these receptors as disclosed in these same patent applications. […] The ligands were used at EC80 concentration levels. The list of bitter ligands utilized and the tested ligand concentrations are contained in Table 5 of this example.

hT2R61 = hT2R61 (Homo sapiens (Human), UniProt P59537); assay: hT2R panel inhibition, transient HEK293 G16g44, agonist Aristolochic Acid 25 nM; format: cell-based; conditions: HEK293, compound at 25 μM
hT2R61, sequence (P59537 whole entry): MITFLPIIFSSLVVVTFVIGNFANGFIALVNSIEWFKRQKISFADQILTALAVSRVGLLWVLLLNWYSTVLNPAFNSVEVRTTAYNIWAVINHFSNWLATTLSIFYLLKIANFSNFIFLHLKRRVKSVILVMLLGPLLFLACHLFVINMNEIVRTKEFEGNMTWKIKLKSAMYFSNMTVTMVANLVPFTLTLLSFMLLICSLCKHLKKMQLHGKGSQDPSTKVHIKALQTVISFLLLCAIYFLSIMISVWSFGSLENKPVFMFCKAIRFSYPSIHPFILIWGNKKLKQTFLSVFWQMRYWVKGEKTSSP
Description: as §1
(§2) Relating to the foregoing, FIG. 5 contains experimental results wherein Compound C was tested with different agonist compounds. The inhibition activity is represented by the reduction of receptor activity in the presence of Compound C. […] These 13 hT2Rs are hT2R3, 7, 10, 14, 16, 44, 51, 55, 61, 63, 64, 65, and 71.

hT2R63 = assay: hT2R panel inhibition, transient HEK293 G16g44, agonist Caffeine 1 mM or Andrographolide 100 μM; format: cell-based, human; conditions: compound at 25 μM; for screening result against bitter receptor 63: receptor activated to EC80 with the corresponding agonist
Description: as §1, §2

hT2R71 = hT2R71 (Homo sapiens (Human), UniProt P59536); assay: hT2R panel inhibition, transient HEK293 G16g44, agonist Picric Acid 10 μM; format: cell-based; conditions: HEK293, compound at 25 μM; receptor activated to EC80 with the corresponding agonist; read-out: screening result against bitter receptor 71
hT2R71, sequence (P59536 whole entry): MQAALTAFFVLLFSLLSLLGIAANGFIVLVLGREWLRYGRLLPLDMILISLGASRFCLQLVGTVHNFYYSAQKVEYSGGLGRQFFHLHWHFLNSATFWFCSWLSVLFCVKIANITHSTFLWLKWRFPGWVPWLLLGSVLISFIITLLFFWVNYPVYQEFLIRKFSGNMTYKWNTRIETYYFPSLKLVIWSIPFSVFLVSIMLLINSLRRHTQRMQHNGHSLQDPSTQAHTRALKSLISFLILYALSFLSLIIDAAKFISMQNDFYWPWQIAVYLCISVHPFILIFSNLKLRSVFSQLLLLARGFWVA
Description: as §1, §2

hT2R55 = assay: hT2R panel inhibition, transient HEK293 G16g44, agonist Cinchonine 150 μM; format: cell-based, human; conditions: compound at 25 μM; receptor activated to EC80 with the corresponding agonist
Description: as §1, §2

hT2R44 = assay: hT2R panel inhibition, transient HEK293 G16g44, agonist Denatonium 0.5 μM; format: cell-based, human; conditions: compound at 25 μM; receptor activated to EC80 with the corresponding agonist
Description: as §1, §2

hT2R64 = hT2R64 (Homo sapiens (Human), UniProt P59538); assay: hT2R panel inhibition, transient HEK293 G16g44, agonist Aristolochic Acid 1 μM; format: cell-based; conditions: HEK293, compound at 25 μM
hT2R64, sequence (P59538 whole entry): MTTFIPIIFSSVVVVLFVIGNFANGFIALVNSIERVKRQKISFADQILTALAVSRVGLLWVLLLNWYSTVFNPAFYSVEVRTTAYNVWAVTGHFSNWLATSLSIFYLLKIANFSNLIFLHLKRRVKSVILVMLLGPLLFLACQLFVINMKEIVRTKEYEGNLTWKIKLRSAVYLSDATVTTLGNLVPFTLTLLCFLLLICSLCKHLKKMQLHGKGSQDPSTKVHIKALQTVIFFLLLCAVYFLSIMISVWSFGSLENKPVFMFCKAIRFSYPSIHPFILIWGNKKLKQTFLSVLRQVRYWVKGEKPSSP
Description: as §1, §2

hT2R5 = hT2R5 (Homo sapiens (Human), UniProt Q9NYW4); assay: hT2R panel inhibition, transient HEK293 G16g44, agonist Picoline 10 mM; format: cell-based; conditions: HEK293, compound at 25 μM; receptor activated to EC80 with the corresponding agonist; read-out: screening result against bitter receptor 5
hT2R5, sequence (Q9NYW4 whole entry): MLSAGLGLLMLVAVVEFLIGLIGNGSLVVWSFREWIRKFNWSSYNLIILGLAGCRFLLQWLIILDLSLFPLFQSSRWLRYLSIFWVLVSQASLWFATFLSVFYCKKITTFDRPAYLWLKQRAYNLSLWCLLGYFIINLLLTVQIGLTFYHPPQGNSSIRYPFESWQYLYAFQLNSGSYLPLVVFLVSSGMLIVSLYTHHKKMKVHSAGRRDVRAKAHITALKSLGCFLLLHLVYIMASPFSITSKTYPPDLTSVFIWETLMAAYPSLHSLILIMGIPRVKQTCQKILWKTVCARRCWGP
Description: as §1, §2

hT2R3 = hT2R3 (Homo sapiens (Human), UniProt Q9NYW6); assay: hT2R panel inhibition, transient HEK293 G16g44, agonist Chloroquine pH6.5 50 μM; format: cell-based; conditions: HEK293, compound at 25 μM; receptor activated to EC80 with the corresponding agonist; read-out: screening result against bitter receptor 3
hT2R3, sequence (Q9NYW6 whole entry): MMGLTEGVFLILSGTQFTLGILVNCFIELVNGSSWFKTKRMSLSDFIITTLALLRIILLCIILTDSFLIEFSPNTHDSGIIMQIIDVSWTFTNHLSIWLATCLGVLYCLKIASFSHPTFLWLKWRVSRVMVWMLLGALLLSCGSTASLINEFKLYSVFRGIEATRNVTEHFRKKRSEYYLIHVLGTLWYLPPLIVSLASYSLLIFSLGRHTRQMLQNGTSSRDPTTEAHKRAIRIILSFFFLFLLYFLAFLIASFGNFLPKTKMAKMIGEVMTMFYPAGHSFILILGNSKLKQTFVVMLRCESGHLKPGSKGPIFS
Description: as §1, §2

hT2R16 = hT2R16 (Homo sapiens (Human), UniProt Q9NYV7); assay: hT2R panel inhibition, transient HEK293 G16g44, agonist Salicin 1 mM; format: cell-based; conditions: HEK293, compound at 25 μM; receptor activated to EC80 with the corresponding agonist; read-out: screening result against bitter receptor 16
hT2R16, sequence (Q9NYV7 whole entry): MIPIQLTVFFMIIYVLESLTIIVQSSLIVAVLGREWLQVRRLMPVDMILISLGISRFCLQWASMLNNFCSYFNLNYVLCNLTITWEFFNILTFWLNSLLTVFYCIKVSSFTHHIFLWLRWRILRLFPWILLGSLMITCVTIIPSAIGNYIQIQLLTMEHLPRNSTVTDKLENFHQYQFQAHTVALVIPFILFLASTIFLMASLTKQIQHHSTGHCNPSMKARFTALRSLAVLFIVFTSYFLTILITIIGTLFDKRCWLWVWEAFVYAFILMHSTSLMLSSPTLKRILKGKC
Description: as §1, §2

hT2R14 [2] = biological target: T1, hT2R14; assay: hT2R14 antagonist high-throughput FLIPR assay, stable cell line with G16g44, agonist aristolochic acid; format: cell-based; conditions: read-out: IC50 on hT2R14 bitter receptor
Description: The inventors also used the automated fluorimetric […] system FLIPR using a slightly different protocol. A HEK293 cell line stably expressing G16gust44 was transfected with a hT2R expression plasmid, 24 hours later, the cells are loaded and analyzed on FLIPR.
After a ligand is identified for a particular hT2R, a HEK293 cell line stably expressing both the hT2R and G16gust44 are generated, facilitating future screening assays to identify other ligands that activate the particular hT2R or which modulate (block or enhance) the activation of this hT2R by another bitter ligand such as a bitter compound contained in coffee. This avoids the need for transient transfection.
To identify antagonists, cell lines stably expressing hT2R8 and hT2R14, respectively, together with the promiscuous chimeric G16g44 protein were generated as described in previous patent applications. A high-throughput assay was established using the stable cell lines and FLIPR (Fluorescent Imaging Plate Reader). An agonist of hT2R8 or hT2R14 was used to activate the receptors up to 70-80% of their respective maximal activity. For hT2R8, the agonist used was andrographolide (200 […]); for hT2R14, it was aristolochic acid (3 μM). To identify antagonists, compounds with diverse chemical structures were added together with the agonist.

hT2R10 = hT2R10 (Homo sapiens (Human), UniProt Q9NYW0); assay: hT2R panel inhibition, transient HEK293 G16g44, agonist Strychnine 50 μM; format: cell-based; conditions: HEK293, read-out: screening result against bitter receptor 10, compound at 25 μM; receptor activated to EC80 with the corresponding agonist
hT2R10, sequence (Q9NYW0 whole entry): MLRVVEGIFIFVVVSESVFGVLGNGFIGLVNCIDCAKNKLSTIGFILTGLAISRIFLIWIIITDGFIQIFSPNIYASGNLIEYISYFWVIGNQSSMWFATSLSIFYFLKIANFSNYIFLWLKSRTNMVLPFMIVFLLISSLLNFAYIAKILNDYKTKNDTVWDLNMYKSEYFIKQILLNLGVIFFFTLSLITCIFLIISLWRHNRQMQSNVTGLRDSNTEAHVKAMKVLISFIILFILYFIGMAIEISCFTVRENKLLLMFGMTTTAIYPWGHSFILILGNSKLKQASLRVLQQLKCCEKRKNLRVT
Description: as §1, §2

[3] = receptor activated to EC80 with agonist, read-out: inhibition of bitter receptor 14
[4] = receptor activated to EC80 with the corresponding agonist, read-out: screening result against bitter receptor 61
[5] = receptor activated to EC80 with the corresponding agonist, read-out: screening result against bitter receptor 14
[6] = receptor activated to EC80 with the corresponding agonist, read-out: screening result against bitter receptor 64

SMILES	inhibition at 25 µM (hT2R61; [4]) [%]	screening result against bitter receptor 63 (hT2R63)	inhibition at 25 µM (hT2R71) [%]	screening result against bitter receptor 44 (hT2R44)	inhibition at 25 µM (hT2R64; [6]) [%]	inhibition at 25 µM (hT2R3) [%]	also measured
Cc1cccc(C)c1NS(=O)(=O)c1ccc2c(c1)c(=O)n(C)c(=O)n2C [Example 6-8, N-(2,6-dimethylphenyl)-1,3-dimethyl-2,4-dioxo-1,2,3,4-tetrahydroquinazoline-6-sulfonamide]	–	–	–	–	–	–	inhibition at 25 µM (hT2R14 [1]; [3]): 20 to 40%
O=C(O)c1ccc(CN(Cc2ccc(F)cc2)S(=O)(=O)c2ccc(O)cc2)cc1 [Example 5-107, 4-((N-(4-fluorobenzyl)-4-hydroxyphenylsulfonamido)methyl)benzoic acid]	> 80	+++ (60% to 80% inhibition = +++)	20 to 40	+ (20% to 40% inhibition = +)	60 to 80	–	inhibition at 25 µM (hT2R14 [1]; [5]): 60 to 80%; screening result against bitter receptor 55 (hT2R55): + (20% to 40% inhibition = +)
COc1ccc(CN(Cc2cccs2)S(=O)(=O)c2ccc(C(=O)O)cc2)cc1 [Example 5-61, 4-(N-(4-methoxybenzyl)-N-(thiophen-2-ylmethyl)sulfamoyl)benzoic acid]	40 to 60	++++ (80% or greater inhibition = ++++)	20 to 40	–	20 to 40	–	inhibition at 25 µM (hT2R5): 20 to 40%; screening result against bitter receptor 55 (hT2R55): + (20% to 40% inhibition = +)
COc1ccc(CN(Cc2ccccc2)S(=O)(=O)c2ccc(CC(=O)O)cc2)cc1 [Example 5-47, 2-(4-(N-benzyl-N-(4-methoxybenzyl)sulfamoyl)phenyl)acetic acid]	60 to 80	+ (20% to 40% inhibition = +)	20 to 40	+ (20% to 40% inhibition = +)	–	20 to 40	–
COc1ccc(C(NS(=O)(=O)c2ccc(C(=O)O)cc2)c2ccccc2)cc1 (centres unmarked) [Example 5-97, 4-(N-((4-methoxyphenyl)(phenyl)methyl)sulfamoyl) benzoic acid]	20 to 40	+++ (60% to 80% inhibition = +++)	–	+ (20% to 40% inhibition = +)	20 to 40	–	inhibition at 25 µM (hT2R16): 60 to 80%; inhibition at 25 µM (hT2R14 [1]; [5]): 20 to 40%
COc1ccc(CN(Cc2ccc(C(=O)O)cc2)S(=O)(=O)c2ccc(O)cc2)cc1 [Example 5-44, 4-((4-hydroxy-N-(4-methoxybenzyl)phenylsulfonamido)methyl)-benzoic acid]	> 80	++++ (80% or greater inhibition = ++++)	40 to 60	++ (40% to 60% inhibition = ++)	40 to 60	20 to 40	pIC50 (hT2R14 [2]): 5.46; inhibition at 25 µM (hT2R14 [1]; [5]): > 80%; screening result against bitter receptor 55 (hT2R55): + (20% to 40% inhibition = +)
COc1ccc(CN(Cc2ccc(C(=O)O)cc2)S(=O)(=O)c2ccc(C(=O)O)cc2)cc1 [Example 5-38, 4-((4-carboxy-N-(4-methoxybenzyl)phenylsulfonamido)methyl)-benzoic acid]	> 80	++++ (80% or greater inhibition = ++++)	20 to 40	–	20 to 40	–	–
COc1ccc(CN(Cc2ccccc2)S(=O)(=O)c2ccccc2C(=O)O)cc1 [Example 5-60, 2-(N-benzyl-N-(4-methoxybenzyl)sulfamoyl)benzoic acid]	–	–	–	–	20 to 40	–	–
COc1ccc(CN(Cc2cccc(C(=O)O)c2)S(=O)(=O)c2ccc(C(=O)O)cc2)cc1 [Example 5-82, 3-((4-carboxy-N-(4-methoxybenzyl)phenylsulfonamido)methyl) benzoic acid]	> 80	++++ (80% or greater inhibition = ++++)	20 to 40	–	20 to 40	–	–
COc1ccc(CN(Cc2ccccc2)C(=O)Nc2ccc(C(=O)O)cc2)cc1 [Example 5-94, 4-(3-benzyl-3-(4-methoxybenzyl)ureido)benzoic acid]	20 to 40	–	20 to 40	++ (40% to 60% inhibition = ++)	60 to 80	20 to 40	–
COc1ccc(CN(Cc2ccccc2)C(=O)c2ccc(C(=O)O)cc2)cc1 [Example 5-49, 4-(benzyl(4-methoxybenzyl)carbamoyl)benzoic acid]	60 to 80	+ (20% to 40% inhibition = +)	20 to 40	+ (20% to 40% inhibition = +)	40 to 60	20 to 40	screening result against bitter receptor 55 (hT2R55): ++++ (80% or greater inhibition = ++++)
N#C/C(=C\c1ccco1)C(=O)Nc1nnc(-c2ccccc2)s1 [Example 6-2, (E)-2-cyano-3-(furan-2-yl)-N-(5-phenyl-1,3,4-thiadiazol-2-yl)acrylamide]	–	–	–	–	–	–	inhibition at 25 µM (hT2R61; receptor activated to EC80 with agonist, read-out: inhibition of bitter receptor 61): 40 to 60%; pIC50 (hT2R14 [2]): 6.30; inhibition at 25 µM (hT2R14 [1]; [3]): > 80%; inhibition of bitter receptor 63 (hT2R63; receptor activated to EC80 with agonist): + (20% to 40% inhibition = +); inhibition at 25 µM (hT2R64; receptor activated to EC80 with agonist, read-out: inhibition of bitter receptor 64): 20 to 40%
COc1ccc(CN(Cc2cccc(C)c2)S(=O)(=O)c2ccc(C(=O)O)cc2)cc1 [Example 5-65, 4-(N-(4-methoxybenzyl)-N-(3-methylbenzyl)sulfamoyl)benzoic acid]	–	–	–	–	–	20 to 40	–
COc1ccc(CN(C)S(=O)(=O)c2ccc(C(=O)O)cc2)cc1 [Example 5-29, 4-(N-(4-methoxybenzyl)-N-methylsulfamoyl)benzoic acid]	–	+++ (60% to 80% inhibition = +++)	–	–	40 to 60	–	–
COc1ccc(CN(Cc2ccncc2)S(=O)(=O)c2ccc(C(=O)O)cc2)cc1 [Example 5-86, 4-(N-(4-methoxybenzyl)-N-(pyridin-4-ylmethyl)sulfamoyl)benzoic acid]	60 to 80	+++ (60% to 80% inhibition = +++)	–	+ (20% to 40% inhibition = +)	–	–	inhibition at 25 µM (hT2R14 [1]; [5]): 20 to 40%
COc1ccc(CNS(=O)(=O)c2ccc(C(=O)O)cc2)cc1 [Example 5-56, 4-(N-(4-methoxybenzyl)sulfamoyl)benzoic acid]	–	–	–	–	20 to 40	20 to 40	–
COc1ccc(CN(Cc2ccccc2)S(=O)(=O)CCC(=O)O)cc1 [Example 5-57, 3-(N-benzyl-N-(4-methoxybenzyl)sulfamoyl)propanoic acid]	> 80	–	–	–	40 to 60	20 to 40	inhibition at 25 µM (hT2R10): 20 to 40%; screening result against bitter receptor 55 (hT2R55): +++ (60% to 80% inhibition = +++)
